Data set [1] in a line: Clearance in human microsomes at 0.5 uM. The class given is ADME, Microsome.
The test system of a further data set is Plasmodium falciparum. Put plainly: Antimalarial activity against Plasmodium falciparum 3D7 A infected in red blood cells assessed as inhibition of [3H]hypoxanthine incorporation after 24 hrs by scintillation counting. The class given is functional, organism-based.
The nature of data set [2]: Clearance in mouse microsomes at 0.5 uM. In kind it is ADME, Microsome.
In data set [3] the target is Voltage-gated inwardly rectifying potassium channel KCNH2 (Homo sapiens, UniProt Q12809). Nature of the data set: Displacement of Cy3b-dofetilide from human ERG expressed in CHO cells by fluorescence polarization assay.

We go through 5 molecules from ChEMBL document CHEMBL2021880, “An Invitation to Open Innovation in Malaria Drug Discovery: 47 Quality Starting Points from the TCAMS” (ACS Med Chem Lett, 2011).

Some results are limits rather than exact numbers.

As usually defined, the IC50 is the concentration that gives 50% inhibition.

Chain of Voltage-gated inwardly rectifying potassium channel KCNH2 (Q12809 whole entry): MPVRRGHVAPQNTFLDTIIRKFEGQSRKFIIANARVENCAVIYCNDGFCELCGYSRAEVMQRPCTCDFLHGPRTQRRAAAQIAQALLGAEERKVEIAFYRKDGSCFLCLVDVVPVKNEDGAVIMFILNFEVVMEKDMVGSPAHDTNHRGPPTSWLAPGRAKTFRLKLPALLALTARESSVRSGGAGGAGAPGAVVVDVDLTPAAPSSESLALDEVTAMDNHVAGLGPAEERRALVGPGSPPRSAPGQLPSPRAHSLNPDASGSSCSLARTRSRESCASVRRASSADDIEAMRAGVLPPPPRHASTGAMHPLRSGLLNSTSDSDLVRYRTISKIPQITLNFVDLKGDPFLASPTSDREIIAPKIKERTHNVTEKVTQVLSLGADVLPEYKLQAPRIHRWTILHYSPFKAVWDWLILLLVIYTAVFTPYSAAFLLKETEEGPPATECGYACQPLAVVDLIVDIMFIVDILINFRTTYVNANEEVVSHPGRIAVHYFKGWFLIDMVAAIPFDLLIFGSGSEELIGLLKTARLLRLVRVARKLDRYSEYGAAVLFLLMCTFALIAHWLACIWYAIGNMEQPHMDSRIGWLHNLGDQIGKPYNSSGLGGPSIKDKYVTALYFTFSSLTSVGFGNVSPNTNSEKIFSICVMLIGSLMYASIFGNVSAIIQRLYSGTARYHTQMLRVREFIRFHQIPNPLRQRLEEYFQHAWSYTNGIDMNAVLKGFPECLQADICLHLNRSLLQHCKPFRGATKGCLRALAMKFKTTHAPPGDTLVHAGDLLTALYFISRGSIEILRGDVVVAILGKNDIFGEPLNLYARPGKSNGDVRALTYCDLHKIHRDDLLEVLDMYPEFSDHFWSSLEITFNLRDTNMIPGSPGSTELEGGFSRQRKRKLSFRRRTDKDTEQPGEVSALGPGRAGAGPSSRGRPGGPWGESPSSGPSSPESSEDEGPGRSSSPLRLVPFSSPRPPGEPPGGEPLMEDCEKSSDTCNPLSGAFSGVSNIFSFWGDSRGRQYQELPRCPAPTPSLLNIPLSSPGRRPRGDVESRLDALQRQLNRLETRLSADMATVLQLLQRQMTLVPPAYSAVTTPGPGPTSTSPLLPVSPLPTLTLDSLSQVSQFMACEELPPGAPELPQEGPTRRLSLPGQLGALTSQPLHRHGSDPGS

Take `O=C(Nc1cc(C(F)(F)F)ccc1-n1cncn1)C1(c2ccccc2)CC1`: the CL in data set [1] was under 0.3 mL/min/g; in data set [2], under 0.8 mL/min/g. In addition, in the data set with Plasmodium falciparum, the IC50 worked out at 30 nM.

For the molecule `CN(C)CCNC(=O)c1cc2c(-c3ccc(Cl)cc3)nn(C)c2s1`, the CL is 0.3 mL/min/g in data set [1] and 4 mL/min/g in data set [2]. The INH in data set [3] stood at 6.3 µM. The IC50 in the data set with Plasmodium falciparum is 950 nM.

In the case of `COc1cc2c(cc1C(F)(F)F)N(C(=O)Nc1cc(OC(F)(F)F)cc(-c3cccnc3)c1)CC2`, the CL in data set [1] and in data set [2] was under 0.3 mL/min/g in each case. The same molecule came in with an INH in data set [3] of over 15 µM. Also, the concentration for half-maximal inhibition (IC50) with Plasmodium falciparum turned out to be 80 nM. Besides, the XC50 in the data set on Plasmodium falciparum was 40 nM.

Molecule `Cc1cc(C(=O)NC2CCN(CC3(c4ccc(Cl)cc4)CCC3)CC2)on1` registered a CL in data set [1] of 18.8 mL/min/g. In the data set on Plasmodium falciparum, the IC50 worked out at 80 nM and the XC50 was determined as 90 nM. The molecule further came in with a CL in data set [2] of 5.6 mL/min/g.

As for `CC(C)(C)c1cc(C(=O)N2CCN(c3ncccc3C(F)(F)F)CC2)n(Cc2ccccc2)n1`, the CL in data set [1] was 12.7 mL/min/g; in data set [2] it was over 30 mL/min/g. Also, the INH in data set [3] is over 50 µM. In addition, the IC50 in the data set with Plasmodium falciparum amounted to 100 nM.
